Data: patent US20250034216A1, “STEREOSELECTIVE COVALENT LIGANDS FOR ONCOGENIC AND IMMUNOLOGICAL PROTEINS” (The Scripps Research Institute, priority 2021, published 2025)

What was measured:
Test in all cases: IA-DTB cysteine engagement
Type in all cases: binding
Details in all cases: 22Rv1 cells, 20 μM probe, 1 h, relative to DMSO
[1] = biological target: T1, SLC12A8_C660 (Homo sapiens, UniProt A0AV02)
T1 construct: endogenous in cells; host or cells: 22Rv1
T1 sequence (A0AV02 1-714): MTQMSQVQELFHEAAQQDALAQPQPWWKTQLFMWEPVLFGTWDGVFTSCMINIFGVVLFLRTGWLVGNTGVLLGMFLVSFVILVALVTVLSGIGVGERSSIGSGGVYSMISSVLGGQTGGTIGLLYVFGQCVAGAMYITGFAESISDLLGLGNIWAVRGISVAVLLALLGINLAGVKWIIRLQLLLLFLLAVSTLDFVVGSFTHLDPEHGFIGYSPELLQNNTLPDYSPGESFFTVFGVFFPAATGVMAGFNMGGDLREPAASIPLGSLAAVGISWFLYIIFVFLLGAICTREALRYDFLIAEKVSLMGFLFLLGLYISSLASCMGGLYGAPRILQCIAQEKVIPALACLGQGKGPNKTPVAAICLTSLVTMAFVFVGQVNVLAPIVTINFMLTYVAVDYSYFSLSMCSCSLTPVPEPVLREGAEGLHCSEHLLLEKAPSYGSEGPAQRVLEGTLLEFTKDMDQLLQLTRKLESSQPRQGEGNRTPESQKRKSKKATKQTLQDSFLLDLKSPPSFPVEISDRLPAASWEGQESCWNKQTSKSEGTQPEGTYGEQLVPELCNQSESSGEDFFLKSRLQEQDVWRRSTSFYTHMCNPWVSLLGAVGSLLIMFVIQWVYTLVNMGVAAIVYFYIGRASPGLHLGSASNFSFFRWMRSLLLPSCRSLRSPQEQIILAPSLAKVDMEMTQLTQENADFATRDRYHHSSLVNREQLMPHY
Method in brief: (§1)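 In-situ probe treatment of cells; lysate 2 mg/mL, IA-DTB 1 h RT; MeOH/CHCl3 precipitation, DTT/iodoacetamide, trypsin; streptavidin enrichment; TMT labeling, high-pH fractionation. Ratio = TMT reporter intensity / mean DMSO channels, median-normalized.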

[2] = biological target: T2, WDR45B_C63 (Homo sapiens, UniProt Q5MNZ6)
T2 construct: endogenous in cells; host or cells: 22Rv1
Method in brief: as §1

[3] = biological target: T3, RAB40B_C77 (Homo sapiens, UniProt Q12829)
T3 construct: endogenous in cells; host or cells: 22Rv1
T3 sequence (Q12829 1-278): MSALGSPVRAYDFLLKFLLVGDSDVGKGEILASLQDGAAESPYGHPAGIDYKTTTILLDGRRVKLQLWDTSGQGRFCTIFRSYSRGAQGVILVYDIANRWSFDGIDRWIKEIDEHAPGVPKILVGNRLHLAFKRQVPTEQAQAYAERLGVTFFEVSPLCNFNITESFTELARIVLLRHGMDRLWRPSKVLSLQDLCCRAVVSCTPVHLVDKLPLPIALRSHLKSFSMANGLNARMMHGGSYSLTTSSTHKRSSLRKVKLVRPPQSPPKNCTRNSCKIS
Method in brief: as §1

[4] = biological target: T4, SYNE2_C2994 (Homo sapiens, UniProt Q8WXH0)
T4 construct: endogenous in cells; host or cells: 22Rv1
Method in brief: as §1

[5] = biological target: T5, DCUN1D4_C219 (Homo sapiens, UniProt Q92564)
T5 construct: endogenous in cells; host or cells: 22Rv1
T5 sequence (Q92564 1-292): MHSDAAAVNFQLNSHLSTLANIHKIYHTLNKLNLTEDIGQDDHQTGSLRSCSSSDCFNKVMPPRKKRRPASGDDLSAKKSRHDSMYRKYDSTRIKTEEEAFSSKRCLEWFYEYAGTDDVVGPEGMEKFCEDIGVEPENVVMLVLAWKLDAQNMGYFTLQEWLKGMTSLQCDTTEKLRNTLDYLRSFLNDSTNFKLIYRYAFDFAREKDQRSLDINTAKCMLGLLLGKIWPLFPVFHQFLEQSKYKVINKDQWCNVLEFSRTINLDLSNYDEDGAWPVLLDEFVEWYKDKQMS
Method in brief: as §1

T2 sequence (Q5MNZ6 whole entry): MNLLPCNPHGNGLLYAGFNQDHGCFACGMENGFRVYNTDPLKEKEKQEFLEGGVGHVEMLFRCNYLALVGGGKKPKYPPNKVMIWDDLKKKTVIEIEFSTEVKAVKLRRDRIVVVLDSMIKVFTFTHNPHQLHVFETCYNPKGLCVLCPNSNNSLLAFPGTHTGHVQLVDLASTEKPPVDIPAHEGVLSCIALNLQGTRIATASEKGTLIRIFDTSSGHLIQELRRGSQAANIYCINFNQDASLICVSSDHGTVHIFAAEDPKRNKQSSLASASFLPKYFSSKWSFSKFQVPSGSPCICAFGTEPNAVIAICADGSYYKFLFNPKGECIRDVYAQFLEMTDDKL

C=CC(=O)N1C[C@@H](c2ccc(Br)cc2)[C@H]1C(=O)Nc1cccc2cccnc12 [MY-1A, (2S,3R)-1-acryloyl-3-(4-bromophenyl)-N-(quinolin-8-yl)azetidine-2-carboxamide] was tested, and the “% engagement SLC12A8_C660” value [1] was 77.5%, the “% engagement WDR45B_C63” value [2] was 52.25% and the “% engagement RAB40B_C77” value [3] was 100%. The “% engagement SYNE2_C2994” value [4] was 29.5% and the “% engagement DCUN1D4_C219” value [5] was 45.5%.
C=CC(=O)N1C[C@H](c2ccc(Br)cc2)[C@@H]1C(=O)Nc1cccc2cccnc12 [MY-1B, (2R,3S)-1-acryloyl-3-(4-bromophenyl)-N-(quinolin-8-yl)azetidine-2-carboxamide] was tested, and the “% engagement SLC12A8_C660” value [1] was 61.5%, the “% engagement WDR45B_C63” value [2] was 7.25% and the “% engagement RAB40B_C77” value [3] was 100%. The “% engagement SYNE2_C2994” value [4] was 75.75% and the “% engagement DCUN1D4_C219” value [5] was 82.5%.
In the case of C=CC(=O)N1C[C@H](c2ccc(Br)cc2)[C@H]1C(=O)Nc1cccc2cccnc12 [MY-3A, (2S,3S)-1-acryloyl-3-(4-bromophenyl)-N-(quinolin-8-yl)azetidine-2-carboxamide], the “% engagement SLC12A8_C660” value [1] is reported as 41%, the “% engagement WDR45B_C63” value [2] is reported as 0% and the “% engagement RAB40B_C77” value [3] is reported as −39%. The “% engagement SYNE2_C2994” value [4] was 11.25% and the “% engagement DCUN1D4_C219” value [5] was 33.5%.
C=CC(=O)N1C[C@H](c2ccc(Br)cc2)[C@H]1C(=O)Nc1cccc2cccnc12 [MY-3B, (2S,3S)-1-acryloyl-3-(4-bromophenyl)-N-(quinolin-8-yl)azetidine-2-carboxamide] was tested, and the “% engagement SLC12A8_C660” value [1] was 68.5%, the “% engagement WDR45B_C63” value [2] was 86.75% and the “% engagement RAB40B_C77” value [3] was 12.5%. The “% engagement SYNE2_C2994” value [4] was 37.5% and the “% engagement DCUN1D4_C219” value [5] was −17%.
